Measurements reported in patent US10213451B2, “Methods and compounds for modulating the secretion or expression of adhesion proteins or angiopoietins of cells” (PACIFIC ARROW LIMITED, priority 2004, dated 2019).
≈ marks a conversion by molar mass, not a printed value.

Assays:
ES2(ovarian) cells = assay: MTT assay ES2; assay type: cell-based, human; conditions: ES2 cells
Description: (§1) MTT Assay. The procedure for MTT assay followed the method described by Carmichael et al. (1987) with modifications. The cells were seeded into a 96-well plate at concentration of 10,000/well for HTB-9, HeLa, H460, HCT116, T98G and OVCAR-3), 15,000/well for DU145, MCF-7, HepG2 and U2OS), and 40,000/well for K562 for 24 hours before drug-treatment. The cells were then exposed to the drugs for 48 hours (72 hours for HepG2 and U2OS, and 96 hours for MCF-7). After the drug-treatment, MTT (0.5 mg/mL) was added to cultures and incubated for an hour. The formazan (product of the reduction of tetrazolium by viable cells) formed and was dissolved with DMSO and the O.D. at 490 nm, and was measured by an ELISA reader. The MTT level of the cells before drug-treatment was also measured (T0). The % cell-growth (% G) is calculated as: % G=(TD−T0/TC−T0)×100(1), where TC or TD represents O.D. readings of control or drug-treated cells. When T0>TD, then the cytotoxicity (LC) expressed as % of the control is calculated as: % LC=(TD−T0/T0)×100(2).
Methods: ES2 cells were exposed to (i) Xanifolia-Y with concentrations of 40, 20, 10, 5, 2.5, and 1.25 ug/ml; or (ii) Paclitaxel with concentrations of […]; or (iii) Combined Xanifolia-Y and Paclitaxel with concentrations of each drug in same order (for example, 40 ug/ml Y plus 10 ng/ml T; 20 ug/ml Y plus 5 ng/ml T, etc. please see FIG. 28). Cells growth under these conditions was determined by the MTT assay.
(§2) Drug-treatment: cells cultures were replaced with fresh RPMI medium containing Xanifolia-Y (10 ug/ml final concentration) or DMSO (as control) at 0 hour. At 2, and 18 hour, aliquot of culture medium was taken out for Fibronectin determination (Western blot method). Cell viability at 18 hours was determined by MTT assay. Cultures were replaced with RPMI medium with MTT and incubated for an hour. The formation of formazan was dissolved in DMSO and OD at 570 nm was measured.

[1] = tested on: (bladder)TB9 cells / HTB-9; assay: MTT assay bladder cells; assay type: cell-based, human; conditions: (bladder)TB9 cells
Description: (§3) Cells. Human cancer cell lines were obtained from American Type Culture Collection: HTB-9 (bladder), HeLa-S3 (cervix), DU145 (prostate), H460 (lung), MCF-7 (breast), K562 (leukocytes), HCT116 (colon), HepG2 (liver), U2OS (bone), T98G (brain), SK-MEL-5 (Skin) and OVCAR-3 (ovary). The cells were grown in following culture media: HeLa-53, DU145, MCF-7, Hep-G2 and T98G are in MEN (Earle's salts); HTB-9, H460, K562 and OVCAR-3 in RPMI-1640; HCT-116 and U2OS in McCoy-5A. They are supplemented with 10% fetal calf serum, glutamine and antibiotics, and incubated in an incubator with 5% CO2 humidified at 37° C.
as §1

(Prostate) DU145 = assay: MTT assay DU145; assay type: cell-based, human
Description: as §3
(§4) MTT Assay. The procedure for MTT assay followed the method described by Carmichael et al. (1987) with modifications. […] The formazan (product of the reduction of tetrazolium by viable cells) formed and was dissolved with DMSO and the O.D. at 490 nm, and was measured by an ELISA reader. The MTT level of the cells before drug-treatment was also measured (T0). The % cell-growth (% G) is calculated as: % G=(TD−T0/TC−T0)×100(1), where TC or TD represents O.D. readings of control or drug-treated cells. When T0>TD, then the cytotoxicity (LC) expressed as % of the control is calculated as: % LC=(TD−T0/T0)×100(2).

(Liver) HepG2 = assay: MTT assay HepG2; assay type: cell-based, human
Description: as §3, §4

(Skin) SK-MELS = assay: MTT assay SK-MEL-5; assay type: cell-based, human
Description: as §3, §4

(Breast)MCF7 = assay: MTT assay MCF7; assay type: cell-based, human
Description: as §3, §4

[2] = tested on: Fibronectin secretion from ES2 cells; assay: Fibronectin secretion (Western blot), ES2 cells; assay type: cell-based, human; conditions: 10 ug/ml; for % inhibition of Fibronectin secretion: ES2 cells; for inhibition at 10 µg/mL: Homo sapiens, ES-2, ES2 cells
Description: Inhibition of Fibronectin secretion is physiological and the determination of its quantity is based on the following criteria: • 1. Fibronectin is secreted from viable cells. Only cell with over 85% viable cells after drug-treatment are employed in these experiments. The viable cells were determined by MTT assay. • 2. For comparison, the immuno-band intensity from each samples are normalized with cell mass. The cell mass was determined by the MTT assay and is assigned as a MTT unit for each cell sample.
Cells: ES2 cells were grew in T-25 flask with RPMI 1640 medium over night before drug-treatment. Drug-treatment: cells cultures were replaced with fresh RPMI medium with Xanifolia-Y (10 ug/ml final concentration) or DMSO (as control) at 0 hour. At 1, 2, 4, 8 and 24 hour, aliquot of culture medium was taken out for Fibronectin determination. Fibronectin was determined by Western blot with monoclonal antibody (SIGMA) specific to human Fibronectin only.
Drug-treatment: cells cultures were replaced with fresh RPMI medium containing Xanifolia-Y (10 ug/ml final concentration) or DMSO (as control) at 0 hour. At 4 hours (A) or 8 hour (B), culture medium was replaced with fresh culture medium without drug. At 2, 4, 8 and 24 hour, aliquot of culture medium was taken out for Fibronectin determination. Fibronectin (FN) was determined by Western blot with monoclonal antibody (SIGMA) specific only to human Fibronectin.
as §2
Cells and Drug-treatment: same as previous experiments. After 7 or 24 hours, aliquot of culture medium was taken out for Fibronectin determination (Western blot method). Cell viability at 24 hours was determined by MTT assay.
Cells: ES2 cells were grew in RPMI 1640 medium over night before drug-treatment. Drug-treatment: cells cultures were replaced with fresh RPMI medium containing DMSO (as control) [D]; Xanifolia-Y (10 ug/ml) [Y]; or Paclitaxel 10 or 50 ng/ml [T10, ro T50]. After 24 hours, aliquot of culture medium was taken out for Fibronectin determination (Western blot method). Cell viability at 24 hours was determined by MTT assay.
The amount of Fibronectin secreted by cells into medium was determined by Western blot assay. The amount of Fibronectin secreted per cells basis was determined by dividing the Western-band intensity with the MTT unit.
Western Blot: Spent culture medium (0.6 ml) was mixed with SDS sample buffer (0.2 ml), boiled for 3 minutes before loading to SDS gel. Samples (60 ul/lane) were applied to a 6% SDS gel and electrophoresis was conducted with 100 volts for 2 hours. Protein was transferred to a nitrocellulose paper electrophoretically (30 min at 100 volts). The Western blot was incubated with the first antibody (mouse anti-FN, specific to human FN, SIGMA F0916) and second antibody (Anti-mouse IgG AP conjugated, Promega S3721). The immunobands were developed with BCIP/NBT color development system (Promega S3771).

[3] = tested on: Fibronectin secretion from lung carcinoma cells (H460); assay: Fibronectin secretion (Western blot), H460 cells; assay type: cell-based, human; conditions: for % inhibition of Fibronectin secretion: H460 cells; for % inhibition of Fibronectin secretion / inhibition at 10 µg/mL: 10 ug/ml
[4] = tested on: Fibronectin secretion from bladder carcinoma cells (HTB-9); assay: Fibronectin secretion (Western blot), HTB-9 cells; assay type: cell-based, human; conditions: 10 ug/ml; for inhibition at 10 µg/mL: Homo sapiens
[5] = tested on: Fibronectin secretion from liver HepG2 cells; assay: Fibronectin secretion (Western blot), HepG2 cells; assay type: cell-based, human; conditions: 10 ug/ml; for % inhibition of Fibronectin secretion: HepG2 cells; for inhibition at 10 µg/mL: Homo sapiens, HepG2, HepG2 cells
[6] = tested on: Fibronectin secretion from brain glioblastoma T98G cells; assay: Fibronectin secretion (Western blot), T98G cells; assay type: cell-based, human; conditions: for % inhibition of Fibronectin secretion / inhibition at 10 µg/mL: 10 ug/ml
[7] = tested on: Fibronectin secretion from skin SK-Mel-5 cells; assay: Fibronectin secretion (Western blot), SK-MEL-5 cells; assay type: cell-based, human; conditions: for % inhibition of Fibronectin secretion / inhibition at 10 µg/mL: 10 ug/ml
ovarian cancer cells = assay: MTT assay, growth of ovarian cancer cells (FIG. 3A, 3B); assay type: cell-based; conditions: Homo sapiens, read-out: IC50, inhibiting growth of ovarian cancer cells
Description: as §3, §4

tumor growth = assay: MTT anticancer activity of Y, X and hydrolysis products (FIG. 4C); assay type: cell-based; conditions: FIG. 4C; read-out: IC50, inhibits tumor growth / anticancer activity
Description: as §1
(A) Alkaline Hydrolysis of Xanifolia-Y: 20 mg of Xanifolia-Y was dissolved in 0.5 mL of 1M NaOH. The solution was incubated in an 80° C. water bath for 4 hours. It was cooled to room temperature before being neutralized with 0.5 mL 1 N HCl (adjusted pH to about 3). The mixture was extracted with 2 mL 1-butanol 3 times. The butanol fractions were collected and lyophilized. The hydrolyzed saponin was further purified with HPLC in a C-18 column eluted with 25% acetonitrile.
(B) Acid Hydrolysis of Xanifolia-Y: 15 mg Xanifolia-Y was dissolved in 1 mL of Methanol. 1 mL of 2N HCl was then added. The mixture was refluxed in an 80° C. water bath for 5 hours. The solution was then neutralized by adding 2 mL of 1N NaOH (to a final pH 3-4). The aglycone was then extracted with ethylacetate 3 mL×3. The extracts were collected and pooled. Further isolation of aglycone (sugar-removed Xanifolia-Y) was achieved by HPLC with isocratic elution of 80% acetonitrile.

[8] = Homo sapiens, NCI-H460, H460 cells

SMILES | % inhibition of Fibronectin secretion [2] [%] | % inhibition of Fibronectin secretion [3] [%] | % inhibition of Fibronectin secretion [4] [%] | % inhibition of Fibronectin secretion [5] [%] | % inhibition of Fibronectin secretion [6] [%] | % inhibition of Fibronectin secretion [7] [%] | inhibition at 10 µg/mL [2] [%] | inhibition at 10 µg/mL [3, 8] [%] | inhibition at 10 µg/mL [4] [%] | inhibition at 10 µg/mL [5] [%] | inhibition at 10 µg/mL ([6]; Homo sapiens) [%] | inhibition at 10 µg/mL ([7]; Homo sapiens) [%] | other results
CC=C(C)C(=O)OC1C(OC(=O)C(C)=CC)C23C(O)CC4(C)C5(C)CCC6C(C)(C)C(OC7OC(C(=O)O)C(O)C(OC8OC(CO)C(O)C(O)C8OC8OC(C)C(O)C(O)C8OC8OC(C)C(O)C(O)C8O)C7OC7OC(CO)C(O)C(O)C7O)CCC6(C)C5CCC4(OC2O)C3CC1(C)C (centres unmarked) [Mb5] | 35 | 25 | 28 | 35 | 33 | 15 | – | – | – | – | – | – | IC50 (ES2(ovarian) cells): 6.5 µg/mL (≈ 4.44 µM); IC50 [1]: 6.5 µg/mL (≈ 4.44 µM); IC50 ((Prostate) DU145): 7.6 µg/mL (≈ 5.19 µM); IC50 ((Liver) HepG2): 6.5 µg/mL (≈ 4.44 µM); IC50 ((Skin) SK-MELS): 25 µg/mL (≈ 17.1 µM); IC50 ((Breast)MCF7): 11 µg/mL (≈ 7.52 µM)
C/C=C(/C)C(=O)O[C@H]1[C@H](OC(=O)/C(C)=C\C)[C@@]2(CO)C(CC1(C)C)C1=CCC3[C@@]4(C)CC[C@H](O[C@@H]5OC(C(=O)O)[C@@H](O)C(O[C@@H]6OC[C@@H](O)C(O)C6O)C5O[C@@H]5OC(CO)[C@H](O)C(O)C5O)C(C)(C)C4CC[C@@]3(C)[C@]1(C)C[C@H]2O (some centres unmarked) [Ba1] | – | – | – | – | – | – | 30 | 19 | 25 | 33 | 26 | 10 | –
C/C=C(/C)C(=O)O[C@H]1[C@H](OC(C)=O)C(C)(C)CC2C3=CCC4[C@@]5(C)CC[C@H](O[C@@H]6OC(C(=O)OCCCC)[C@@H](O)C(O[C@@H]7O[C@@H](CO)C(O)C7O)C6O[C@@H]6OC(CO)[C@H](O)C(O)C6O)C(C)(C)C5CC[C@@]4(C)[C@]3(C)C[C@@H](O)[C@]21CO (stereo partly drawn) [X, 3-O-{[β-D-galactopyranosyl (1→2)]-[α-L-arabinofuranosyl (1→3)]-β-D-glucuronopyranosidebutyl ester}-21-O-acetyl-22-O-angeloyl-3β,16α,21β,22α,28-pentahydroxyolean-12-ene] | – | – | – | – | – | – | 39 | – | 38 | 42 | – | – | IC50 (ovarian cancer cells): 30 µg/mL (≈ 26.3 µM); IC50 (tumor growth): 6 µg/mL (≈ 5.26 µM); inhibition at 20 µg/mL ([3]; Homo sapiens, NCI-H460, H460 cells, 20 ug/ml): 37%; inhibition at 20 µg/mL ([6]; Homo sapiens, T98G, 20 ug/ml): 52%; inhibition at 20 µg/mL ([7]; Homo sapiens, 20 ug/ml): 15%
C/C=C(/C)C(=O)O[C@@H]1C(O)[C@H](O[C@H]2[C@H](OC(C)=O)[C@@]3(CO)C(CC2(C)C)C2=CCC4[C@@]5(C)CC[C@H](O[C@@H]6OC(C(=O)O)[C@@H](O)[C@@H](O[C@@H]7O[C@@H](CO)[C@@H](O)C7O)C6O[C@@H]6OC(CO)[C@H](O)[C@@H](O)C6O)C(C)(C)C5CC[C@@]4(C)[C@]2(C)C[C@H]3O)OC(C)[C@@H]1OC(=O)/C(C)=C\C (stereo partly drawn) [Xanifolia Y1, 3-O-[β-D-galactopyranosyl (1→2)]-α-L-arabinofuranosyl (1→3)-β-D-glucuronopyranosyl-21-O-(3,4-diangeloyl)-α-L-rhamnophyranosyl-22-O-acetyl-3β,16α, 21β, 22α, 28-pentahydroxyolean-12-ene] | – | – | – | – | – | – | 41 | 13 | 50 | 33 | 40 | 10 | –
CC=C(C)C(=O)OC1C(OC(=O)c2ccccc2)C(C)(C)CC2C3=CCC4C5(C)CCC(OC6OC(C(=O)OC)C(O)C(OC7OCC(O)C(O)C7O)C6OC6OC(CO)C(O)C(O)C6O)C(C)(C)C5CCC4(C)C3(C)CC(O)C21CO [Ba4, 3-O-[β-D-galactopyranosyl(1→2)]-β-D-xylopyranosyl (1→3)-β-D-methylglucuronopyranosyl-21-O-benzoyl, 22-O-angeloyl-3β, 15α, 21β, 22α, 28-pentahydroxyolean-12-ene] | 28 | 18 | 30 | 28 | 24 | 10 | – | – | – | – | – | – | –
